These results are taken from paper PMC6479253 (Assay and Drug Development Technologies, 2019).

Usually pIC50 stands for −log10 of the IC50, conventionally taken in molar units.

Assay [1] deals with Kir2.1. The settings on record: Xenopus oocytes, at −120 mV; ref Schram et al. 23; cited from earlier work.
The target of another assay is T1, human Kir2.1 channels (Homo sapiens, UniProt P63252).
T1 sequence (P63252 1-427): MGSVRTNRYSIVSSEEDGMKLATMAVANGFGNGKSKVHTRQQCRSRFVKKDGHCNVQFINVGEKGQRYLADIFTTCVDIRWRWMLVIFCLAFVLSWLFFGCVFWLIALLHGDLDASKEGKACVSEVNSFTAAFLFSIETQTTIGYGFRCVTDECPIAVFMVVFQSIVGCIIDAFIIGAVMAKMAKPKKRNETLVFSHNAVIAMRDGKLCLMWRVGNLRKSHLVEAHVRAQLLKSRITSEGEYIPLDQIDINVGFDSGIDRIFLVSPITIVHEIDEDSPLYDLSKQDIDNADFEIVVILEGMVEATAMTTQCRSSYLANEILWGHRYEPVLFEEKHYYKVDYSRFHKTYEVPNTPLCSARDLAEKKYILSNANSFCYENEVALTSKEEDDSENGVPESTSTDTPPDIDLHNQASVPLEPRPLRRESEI
In words: cell-based. Type of assay: cell-based.

In assay [2] the test system is Kir2.1. Particulars: HEK cells, at −90 mV; ref Shen et al. 43; cited from earlier work.
For a further assay, the system named is IK1 currents. Particulars: 3 μM chloroquine, at −100 mV; cited from earlier work.
In assay [3] the test system is Kir2.1. Particulars: at −100 mV, manual patch-clamp; cited from earlier work. Background: Patch clamp records ionic current or voltage across a cell membrane.

pIC50: −log10 of the molar value. Like-named read-outs stand apart in the source and are kept apart here.

As to `[Ba+2].[Cl-].[Cl-]` [Ba^2+], the figures for the pIC50 in the assay with Kir2.1 [1] and with Kir2.1 [2] were 4.80 and 5.10, respectively. In addition, the “Hill coefficient (nH)” value on human Kir2.1 channels was determined as 1.03.

With `CCN(CC)CCCC(C)Nc1ccnc2cc(Cl)ccc12` (stereo not drawn) [Chloroquine, 4-N-(7-chloroquinolin-4-yl)-1-N,1-N-diethylpentane-1,4-diamine], on human Kir2.1 channels, the “Hill slope nH (95% CI)” value is 0.80 (0.76–0.83) and the pIC50 was 5.72. Also, in the assay on IK1 currents, the “decrease of IK1 currents” value is on record as 67%.

Consider `CN(C)CCCN1c2ccccc2Sc2ccc(Cl)cc21` [Chlorpromazine, 3-(2-chlorophenothiazin-10-yl)-N,N-dimethylpropan-1-amine], for which, at human Kir2.1 channels, the “Hill slope nH (95% CI)” value is listed as 1.7 (1.4–2.1) and the pIC50 is 5.42.

In the case of `COc1ccc(CNCc2cccc3ccccc23)cc1` [ML133, N-(4-methoxybenzyl)-1-(naphthalene-1-yl) methanamine], the pIC50 in the assay with Kir2.1 [3] is 5.74. At human Kir2.1 channels, the “Hill slope nH (95% CI)” value is 2.6 (2.2–3.1) and the negative logarithm of the IC50 (pIC50) was 5.92.

In the case of `COc1ccc(CCCOC(Cn2ccnc2)c2ccc(OC)cc2)cc1` (stereo not drawn) [SKF-96365, 1-[2-(4-methoxyphenyl)-2-[3-(4-methoxyphenyl)propoxy]ethyl]imidazole], on human Kir2.1 channels, the “Hill slope nH (95% CI)” value was 1.3 (1.1–1.5) and the negative logarithm of the IC50 (pIC50) is 5.33.

Regarding `COc1ccc(C2CCN(CC[C@H]3CCOc4ccccc43)CC2)cc1OC` [Terikalant, 1-[2-[(4S)-3,4-dihydro-2H-chromen-4-yl]ethyl]-4-(3,4-dimethoxyphenyl)piperidine], at human Kir2.1 channels, the “Hill slope nH (95% CI)” value is given as 0.98 (0.88–1.1) and the pIC50 is 5.08.
